Tests used:
[1] = test system: normal human dermal fibroblast cultures; experiment: effect of resveratrol on the synthesis of collagen: incorporation of tritiated proline into newly synthesized proteins of normal human dermal fibroblast cultures; assay type: cell-based
Experimental: (§1) Investigating the effect of resveratrol on the synthesis of collagen: This study was carried out by measuring the incorporation of radioactive proline into the proteins newly synthesized by normal human dermal fibroblast cultures. These newly synthesized proteins were predominantly collagen fibers. The fibroblast cultures were conducted according to conventional cell culture techniques, namely, in MEM/M199 medium marketed by Gibco, in the presence of sodium bicarbonate (1.87 mg/ml), of L-glutamine (2 mM), of penicillin (50 IU/ml) and of 10% fetal calf serum (Gibco). The test was carried out on 80% confluent cell cultures in a 24-well plate. […] The labelling with tritiated proline (L-[2,3-^3 H]proline marketed by Amersham, 33 mCi/ml) was conducted for 24 hours. The amount of tritiated proline incorporated was measured at the end of the test by acid precipitation of the proteins on filters and liquid scintillation counting. The results were evaluated relative to a control consisting of cells which were not treated with resveratrol. A positive control (vitamin C at 20 mg/ml) known to stimulate the synthesis of collagen was included in the test as a reference.

[2] = test system: normal human dermal fibroblast cultures; experiment: as above; assay type: cell-based; design: dose or concentration left out as unconfirmed; conditions: positive control; not treated 22,528 cpm
Experimental: as §1

[3] = test system: normal human dermal fibroblast cultures; experiment: as above; assay type: cell-based; design: unit of the concentration uncertain; conditions: 48 hours contact, labelling 24 hours, not treated 22,528 cpm
Experimental: as §1

[4] = test system: normal human dermal fibroblast cultures; experiment: effect of resveratrol on the proliferation of the fibroblasts of the dermis: incorporation of radioactive thymidine into normal human dermal fibroblast cultures; assay type: cell-based; conditions: for tritiated thymidine incorporated (cpm): 48 hours contact, labelling 24 hours, not treated 13,649 cpm
Experimental: Investigating the effect of resveratrol on the proliferation of the fibroblasts of the dermis:
This study was carried out by measuring the incorporation of radioactive thymidine into normal human dermal fibroblast cultures.
The fibroblast cultures were conducted according to conventional cell culture techniques, namely in MEM/M199 medium marketed by Gibco, in the presence of sodium bicarbonate (1.87 mg/ml), of L-glutamine (2 mM), of penicillin (50 IU/ml) and of 10% fetal calf serum (Gibco).
The test was carried out on 80% confluent cell cultures in a 24-well plate. Resveratrol, at the concentration of 1.25 mM and 5 mM, was placed in contact with the cells for 48 hours. The labelling with tritiated thymidine ([methyl-^3 H]thymidine marketed by Amersham, 82 Ci/mmol) was conducted for 24 hours.
The amount of tritiated thymidine incorporated was measured at the end of the test by acid precipitation of the proteins on filters and liquid scintillation counting.
The results were evaluated relative to a control consisting of cells which were not treated with resveratrol.
A positive control (fetal calf serum at 20%) known to stimulate the […] was included in the test as a reference.

[5] = test system: interstitial collagenase (A2058 cells); experiment: effect of resveratrol on the production of interstitial collagenase in a culture of A2058 cells (Elisa); assay type: cell-based, human
Experimental: Effect of resveratrol on the expression of the collagenases:
The effect of resveratrol on the production of interstitial collagenase was evaluated in a model of culture of A2058 cells (derived from human malanomas: Templeton N. S. et al., Cancer Res., SO.- 54315431(1990)).
The cells were incubated in a phenol red-free MEM medium containing amino acids at the concentration of 2 mM, sodium pyruvate at the concentration of 1 mM and 10% charcoal-treated calf serum. They were then cultured at the density of 20,000 cells per well in the 24 wells of a multiwell plate.
Twenty-four hours after cultering, the cells were contacted with resveratrol. The production of interstitial collagenase was evaluated 96 hours later in the culture medium. This was carried out with the aid of an Elisa kit (Biotrack human MMPL; Amersham).
The resveratrol was tested at the concentrations 2×10^-7 M and 2×10^-6 M.
The results, expressed as percentages, represent the reduction in the production of interstitial collagenase compared with the control, namely, compared with a culture carried out under the same conditions in the absence of resveratrol.

O=C1O[C@H]([C@@H](O)CO)C(O)=C1O [Vitamin C, reference compound]
activity at 20000 µg/mL ([1]; Homo sapiens, Fibroblast, 48 h, positive control, 20 mg/ml, not treated = 100, p <0.01, read-out: tritiated proline incorporated, % relative to not treated control): 162% | tritiated proline incorporated (cpm) [2]: 36,431 cpm

Oc1ccc(C=Cc2cc(O)cc(O)c2)cc1 [Resveratrol, 3,4',5-trihydroxystilbene]
activity at 1250 µM ([1]; Homo sapiens, Fibroblast, 1.25 mM, 48 hours, not treated = 100, p <0.01, read-out: tritiated proline incorporated, % relative to not treated control): 121% | activity at 5000 µM ([1]; Homo sapiens, Fibroblast, 5.00 mM, 48 hours, not treated = 100, p <0.05, read-out: tritiated proline incorporated, % relative to not treated control): 114% | incorporation of proline into collagen (in words) ([1]; conclusion from Table I): substantially stimulated the incorporation of proline into collagen | tritiated proline incorporated (cpm) ([3]; 1.25 (unit uncertain)): 27,164 cpm | tritiated proline incorporated (cpm) ([3]; 5.00 (unit uncertain)): 25,769 cpm | tritiated thymidine incorporated (cpm) ([4]; 1.25 mM): 15,055 cpm | tritiated thymidine incorporated (cpm) ([4]; 5.00 mM): 19,229 cpm | activity at 1250 µM ([4]; Homo sapiens, Fibroblast, 1.25 mM, 48 hours, not treated = 100, p <0.05, read-out: tritiated thymidine incorporated, % relative to not treated control): 110% | activity at 5000 µM ([4]; Homo sapiens, Fibroblast, 5.00 mM, 48 hours, not treated = 100, p <0.01, read-out: tritiated thymidine incorporated, % relative to not treated control): 141% | inhibition at 0.2 µM ([5]; Homo sapiens, 0.2 μM, 96 hours, A2058 cells, read-out: % inhibition (reduction in the production of interstitial collagenase compared with the control)): 14% | inhibition at 2 µM ([5]; Homo sapiens, 2 μM, 96 hours, A2058 cells, read-out: % inhibition (reduction in the production of interstitial collagenase compared with the control)): 57% | production of interstitial collagenase by A2058 cells (in words) ([5]; conclusion from Table III): reduced the production of interstitial collegenase by the A 2058 cells and this in a dose-dependent manner
